The values below come from ChEMBL document CHEMBL1201862, “PubChem BioAssay data set” (2004).

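Compound exposure: 48 hours, 5 concentrations, 96-well plates. GI50: concentration for 50% inhibition of growth.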 Calls of active or inactive are those of the source. No stated cut-off is given here; in the data, active = GI50 up to about 1.1 µM and inactive = higher. Bounds are passed on as bounds.

Test systems include A549; BT-549; CAKI-1; EKVX; HCT-116; HL-60; HOP-62; Hs-578T; K562; MDA-MB-435; MDA-N; NCI/ADR-RES; OVCAR-3; SK-MEL-28; SK-MEL-2; SK-MEL-5; SNB-19; SR; TK-10; UO-31.
What all share (experiment): inhibition of tumour cell growth, NCI panel, 48 h

For the compound `CC1=C(O)C(=O)C=C2C1=CC=C1[C@@]2(C)CC[C@@]2(C)C3C[C@@H](C)C(=O)[C@@H](O)[C@]3(C)CC[C@]12C` (stereo not given in full), the GI50 in the assay on A549 was 13.9 µM (inactive); in the assay with BT-549 it was 1.75 µM (inactive); in the assay with CAKI-1, 1.47 µM (inactive); in the assay on EKVX it was 2.08 µM (inactive); with HCT-116 it was 1.72 µM (inactive); with HL-60 it was 0.641 µM (active). In addition, the GI50 in the assay with HOP-62 is 6.38 µM (inactive); in the assay on Hs-578T, 4.18 µM (inactive); in the assay on K562, 0.891 µM (active); with MDA-MB-435, 2.24 µM (inactive); with MDA-N it was 1.69 µM (inactive); in the assay on NCI/ADR-RES it was 2.97 µM (inactive). The GI50 with OVCAR-3 is 1.88 µM (inactive); with SK-MEL-28, 1.95 µM (inactive); with SK-MEL-2, 5.05 µM (inactive); with SK-MEL-5, 3.35 µM (inactive); in the assay on SNB-19, 4.15 µM (inactive); in the assay on SR, 0.3 µM (active). Besides, the GI50 in the assay with TK-10 is 1.84 µM (inactive); with UO-31 it was 1.92 µM (inactive).
Regarding `CN1CCN(Cc2nc3cccc4c3c([n+]2[O-])-c2ccccc2-4)CC1`, the GI50 with A549 is 14.8 µM (inactive); with BT-549, 39 µM (inactive); in the assay with CAKI-1, 25.5 µM (inactive); in the assay with EKVX, 31.4 µM (inactive); with HCT-116, 4.41 µM (inactive); with HL-60, 33.1 µM (inactive). Further, the GI50 with HOP-62 is 30 µM (inactive); in the assay with Hs-578T, 34.9 µM (inactive); with K562, 29.6 µM (inactive); in the assay with MDA-MB-435, 15.6 µM (inactive); in the assay with MDA-N it was 12.6 µM (inactive); with NCI/ADR-RES, 10.6 µM (inactive). In addition, the GI50 in the assay with OVCAR-3 was 37.8 µM (inactive); in the assay with SK-MEL-28, 31.7 µM (inactive); in the assay on SK-MEL-2 it was 23.1 µM (inactive); in the assay with SK-MEL-5, 19.1 µM (inactive); in the assay with SNB-19 it was 16.9 µM (inactive); with SR, 4.19 µM (inactive). Besides, the GI50 in the assay on TK-10 is 43.5 µM (inactive); in the assay with UO-31 it was 20 µM (inactive).
Turning to `Cc1n[nH]c(C(F)(F)F)c1/N=N/N(C)C`, the GI50 in the assay on A549 was 18.4 µM (inactive); with BT-549, 11.7 µM (inactive); in the assay on CAKI-1, 1.64 µM (inactive); in the assay on EKVX, 2.25 µM (inactive); in the assay on HCT-116 it was 1.93 µM (inactive); with HL-60, 12.6 µM (inactive). Moreover, the GI50 is 10 µM (inactive) in the assay with HOP-62; 15.6 µM (inactive) with Hs-578T; 2.93 µM (inactive) in the assay on K562; 14.5 µM (inactive) with MDA-MB-435; > 100 µM (inactive) in the assay with MDA-N; 7.13 µM (inactive) in the assay with NCI/ADR-RES. The GI50 with OVCAR-3 is 5.16 µM (inactive); in the assay on SK-MEL-28, 17.9 µM (inactive); in the assay on SK-MEL-2, 17.2 µM (inactive); in the assay on SK-MEL-5, > 100 µM (inactive); in the assay on SNB-19 it was 15.1 µM (inactive); in the assay with SR it was 4.47 µM (inactive). The GI50 with TK-10 is 7.91 µM (inactive); in the assay with UO-31, 1.61 µM (inactive).
Consider `C=CC(=O)N1C/C(=C\c2ccc([N+](=O)[O-])cc2)C(=O)/C(=C/c2ccc([N+](=O)[O-])cc2)C1`, for which the GI50 was 0.427 µM (active) in the assay with A549; 0.194 µM (active) in the assay on BT-549; 0.128 µM (active) in the assay on CAKI-1; 0.243 µM (active) with EKVX; < 0.017 µM (active) in the assay on HCT-116; > 100 µM (inactive) with HL-60. The GI50 was 0.222 µM (active) in the assay on HOP-62; < 0.0422 µM (active) in the assay with Hs-578T; 0.0982 µM (active) in the assay with K562; 0.254 µM (active) in the assay on MDA-MB-435; 0.169 µM (active) in the assay with MDA-N; 0.258 µM (active) in the assay on NCI/ADR-RES. In addition, the GI50 was 0.132 µM (active) in the assay on OVCAR-3; 0.275 µM (active) in the assay with SK-MEL-28; 0.43 µM (active) in the assay on SK-MEL-2; 0.719 µM (active) with SK-MEL-5; 1.16 µM (inactive) in the assay with SNB-19; 0.289 µM (active) with SR. In addition, the GI50 is 0.713 µM (active) in the assay on TK-10 and 0.147 µM (active) in the assay on UO-31.
Turning to `O=C(NO)c1cccc(OCc2ccc(Br)cc2)c1`, the GI50 was 5.28 µM (inactive) in the assay with A549; 7.71 µM (inactive) with BT-549; 3.11 µM (inactive) in the assay with CAKI-1; 5.9 µM (inactive) in the assay on EKVX; 4.35 µM (inactive) in the assay on HCT-116; 3.01 µM (inactive) with HL-60. For the same compound, the GI50 with HOP-62 was 4.97 µM (inactive); with Hs-578T, 13.1 µM (inactive); in the assay on K562 it was 3.6 µM (inactive); in the assay with MDA-MB-435, 5.73 µM (inactive); in the assay on MDA-N it was 9.02 µM (inactive); in the assay on NCI/ADR-RES, 2.93 µM (inactive). The GI50 with OVCAR-3 is 3.85 µM (inactive); in the assay with SK-MEL-28, 14.2 µM (inactive); in the assay on SK-MEL-2 it was 11.3 µM (inactive); in the assay on SK-MEL-5, 3.98 µM (inactive); in the assay with SNB-19, 9.35 µM (inactive); in the assay with SR, 2.29 µM (inactive). The figures for the GI50 in the assay with TK-10 and with UO-31 were 10.5 µM (inactive) and 2.77 µM (inactive), respectively.
As for `COc1ccc2[nH]c3c(C)c4ccnc(NCCCN(C)CCCNc5ccc6ncn7c8ccccc8c(=O)c5c67)c4c(C)c3c2c1`, the GI50 is 0.106 µM (active) in the assay with A549; 1.06 µM (active) in the assay with BT-549; 0.242 µM (active) with CAKI-1; 0.94 µM (active) in the assay with EKVX; 0.0767 µM (active) in the assay with HCT-116; 0.08 µM (active) with HL-60. The GI50 in the assay on HOP-62 was 0.275 µM (active); in the assay on Hs-578T it was 3.15 µM (inactive); with K562, 0.0632 µM (active); with MDA-MB-435, 0.713 µM (active); in the assay on MDA-N it was 0.411 µM (active); in the assay on NCI/ADR-RES, 0.664 µM (active). Besides, the GI50 was 1.87 µM (inactive) with OVCAR-3; 0.671 µM (active) in the assay on SK-MEL-28; 3.24 µM (inactive) in the assay with SK-MEL-2; 0.573 µM (active) in the assay on SK-MEL-5; 0.752 µM (active) in the assay with SNB-19; 0.0197 µM (active) with SR. Also, the results for the GI50 in the assay with TK-10 and with UO-31 were 0.22 µM (active) and 0.361 µM (active), respectively.
As to `O=c1[nH]cc(/C=N\Nc2ccccc2)c(=O)[nH]1`, the GI50 with A549 was > 100 µM (inactive); with BT-549, > 100 µM (inactive); in the assay on CAKI-1 it was > 100 µM (inactive); with EKVX, > 100 µM (inactive); in the assay on HCT-116, > 100 µM (inactive); in the assay on HL-60, 5.78 µM (inactive). The GI50 in the assay with HOP-62 was > 10 µM (inactive); in the assay on Hs-578T, > 100 µM (inactive); in the assay with K562 it was 3.96 µM (inactive); with MDA-MB-435 it was > 100 µM (inactive); in the assay with MDA-N it was > 100 µM (inactive); in the assay on NCI/ADR-RES it was > 100 µM (inactive). Further, the GI50 in the assay with OVCAR-3 is 21.8 µM (inactive); in the assay with SK-MEL-28 it was > 100 µM (inactive); in the assay with SK-MEL-2, > 100 µM (inactive); in the assay on SK-MEL-5, 11.6 µM (inactive); with SNB-19, > 100 µM (inactive); in the assay on SR, > 100 µM (inactive). The GI50 with TK-10 and with UO-31 was > 100 µM (inactive) throughout.
With `CC(Br)C(=O)NC(CO)C(=O)O` (stereo not given), the GI50 with A549, in the assay on BT-549, in the assay on CAKI-1, in the assay on EKVX, with HCT-116 and with HL-60 was > 100 µM (inactive) throughout. Besides, the GI50 with HOP-62, with Hs-578T, in the assay with K562, in the assay with MDA-MB-435, with MDA-N and in the assay on NCI/ADR-RES was > 100 µM (inactive) each time. Moreover, the GI50 with OVCAR-3, with SK-MEL-28, in the assay on SK-MEL-2, in the assay with SK-MEL-5, in the assay with SNB-19 and with SR was > 100 µM (inactive) each time. Further, the GI50 in the assay with TK-10 and in the assay with UO-31 was > 100 µM (inactive) in each case.
In the case of `O=S1(=O)CCN(c2ccccc2CC(c2c[nH]c3ccccc23)c2c[nH]c3ccccc23)CC1`, the GI50 in the assay on A549 was 8.41 µM (inactive); in the assay with BT-549, 11.9 µM (inactive); with CAKI-1, 9.16 µM (inactive); in the assay on EKVX it was 8.49 µM (inactive); in the assay with HCT-116 it was 4.47 µM (inactive); with HL-60 it was 1.12 µM (active). In addition, the GI50 is 13.6 µM (inactive) with HOP-62; 7.71 µM (inactive) with Hs-578T; 3.08 µM (inactive) with K562; 5.62 µM (inactive) in the assay on MDA-MB-435; 3.92 µM (inactive) with MDA-N; 6.62 µM (inactive) in the assay on NCI/ADR-RES. The GI50 in the assay with OVCAR-3 was 5.53 µM (inactive); in the assay with SK-MEL-28, 8.73 µM (inactive); in the assay on SK-MEL-2 it was 6.24 µM (inactive); in the assay with SK-MEL-5, 6.61 µM (inactive); in the assay on SNB-19, 12.3 µM (inactive); with SR it was 3.08 µM (inactive). Besides, the figures for the GI50 with TK-10 and with UO-31 were 5.32 µM (inactive) and 7.41 µM (inactive), respectively.
Take `Cc1cccc(/C=N/NC(=S)N(C)CCc2ccccn2)n1`: the GI50 in the assay with A549 is 0.417 µM (active); in the assay on BT-549 it was 0.857 µM (active); in the assay with CAKI-1 it was 0.421 µM (active); with EKVX, 0.391 µM (active); in the assay with HCT-116, 0.256 µM (active); in the assay on HL-60, 0.0429 µM (active). Moreover, the GI50 in the assay on HOP-62 is 0.32 µM (active); in the assay with Hs-578T it was > 33 µM (inactive); in the assay with K562, 0.163 µM (active); with MDA-MB-435, 0.521 µM (active); in the assay with MDA-N, 0.473 µM (active); in the assay on NCI/ADR-RES it was 0.269 µM (active). The GI50 in the assay on OVCAR-3 was 0.0853 µM (active); in the assay on SK-MEL-28, 0.501 µM (active); in the assay with SK-MEL-2 it was 0.661 µM (active); in the assay on SK-MEL-5, 0.314 µM (active); in the assay with SNB-19, 0.729 µM (active); with SR, 0.246 µM (active). The values for the GI50 in the assay on TK-10 and in the assay on UO-31 were 15.2 µM (inactive) and 0.271 µM (active), respectively.
